The record followed here is patent US11357774B2, “Use of a quinoline sulfonyl compound for treatment of inflammation, inflammatory disorders, autoimmune disorders and malaria” (priority 2019, dated 2022).

Data set [1] deals with IL-6 secretion in HFLS-N cells. Put plainly: IL-6 secretion in stimulated HFLS-N cells (ELISA). Format: cell-based, human. The conditions noted are these: 6 hours. How it is done: (§1) The mean±SEM (n=3) values were determined by a Dunnett's test.
(§2) The values presented are the mean±SEM (n=2).
(§3) The enzyme-linked immunosorbent assay (ELISA) is a quantitative measurement based on sandwich-based enzyme linking, using a protein-specific capture antibody to determine the levels of single or multiple chemokines and cytokines.
(§4) This finding was extended to human cells relevant to autoimmune diseases. Human fibroblast-like synoviocytes (HFLS) are present in the synovial fluid of joint capsules and produce harmful molecules that contribute to joint destruction and the exacerbation of the disease in rheumatoid arthritis patients. […] The cells were then stimulated with IL-1β (FIG. 16) or LPS (FIG. 17), in the absence (control; IL-1β only) or presence of VR23 or HCQ. HCQ was included for comparison because it is often used to treat rheumatoid arthritis. […] For “VR23 only” samples, 5 μM VR23 was used. Fifty thousand HFLS cells per mL were used for the experiment. Cytokine levels in cell culture supernatants were determined by a single-analyte ELISA. […] Fifty thousand HFLS cells per mL were used for the experiment. The cytokine secretion was measured in cell culture supernatants by a single-analyte ELISA.
(An ELISA detects its analyte on a solid surface through an enzyme-linked reagent.)

For data set [2], the system named is IL-6 secretion in HFLS-RA cells. The data set can be described thus: IL-6 secretion in stimulated HFLS-RA cells (ELISA). The conditions noted are these: 6 hours. Format: cell-based, human. The procedure: as §1, §2, §3, §4
For data set [3], the system named is BALB/c mice with ALI caused by LPS. The data set can be described thus: LPS-induced acute lung injury in mice, bronchoalveolar fluid cell counts and TNF-α. To be noted: 24 hours, VR23 30 mg/kg intraperitoneally. Format: in vivo, mouse.
From the text: as §3
Six to eight week old female BALB/c mice strain 028 (Charles River Laboratories, QC, Canada) were fed regularly with laboratory chow and water upon arrival at the Laurentian University Animal Care Facility (Sudbury, ON, Canada). To determine a useful dose of LPS, three mice per group were treated for 24 hours with the following three different conditions: (i) no LPS, (ii) 0.25 mg of LPS per kg of body weight, and (iii) 0.50 mg of LPS per kg of body weight. […] After the animals were sacrificed, the bronchoalveolar lavage fluid (BALF) of each mouse was collected and analyzed for LPS-induced inflammatory responses. […] Bronchoalveolar lavage fluid was collected and the number of cells infiltrated into the bronchoalveolar fluid were counted (FIG. 2). […]
Toward this goal, a useful LPS dose to induce TNF-α in the mouse bronchoalveolar fluid was first obtained. […] To illustrate the anti-inflammatory property of VR23, the level of TNF-α in the BALF was measured at 24-hour post-treatment. […] The levels of TNF-α were determined at 24-hour post-LPS stimulation (0.4 mg/kg), in the absence (controls) or presence of DEX (4 mg/kg) or VR23 (30 mg/kg).

For data set [4], the system named is CQ-sensitive P. falciparum 3D7. The data set can be described thus: Anti-parasitic assay (SYBR Green I), 3D7 strain. Format: cell-based. To be noted: Plasmodium falciparum, 3D7, 48 h. How it is done: The CQ-resistant P. falciparum ItG and the CQ-sensitive 3D7 strains were maintained and assays carried out as described previously^25. Briefly, P. falciparum strains were maintained in RPMI 1640 culture medium supplemented with 10% human serum, 25 mM HEPES, gentamicin, and 50 μM of hypoxanthine. The anti-parasitic assay was carried out as described previously^25. Briefly, a compound gradient was generated across a 96-well assay plate; a constant number of parasites added in 50 μL of the culture medium; allowed to grow for 48 hours; and followed by the measurement of DNA amounts (i.e., fluorescence) using SYBR Green I. The IC50 value is the 50% point between alive and dead for which a three-parameter fit was used.
VR23 is a derivative of CQ; a well-known anti-malarial drug. […] ItG and […] P. falciparum strains are CQ-resistant and CQ-sensitive strains, respectively. IC50 values were calculated by S.E.M (Table 2).

Data set [5] relates to human fibroblast-like synoviocytes from healthy donors (HFLS-N). Put plainly: Viability test, HFLS-N cells. Format: cell-based. To be noted: 6 hours, IL-1β 10 ng/mL, VR23 2.5-10 μM. How it is done: The values presented are the mean±SEM (n=3).
The CCK-8 assay was used to count viable cells under the various treatment conditions. Briefly, cells were cultured in 11 columns of a 96-well clustered plate, with 5,000 cells in 100 μL of culture medium per well, excluding one column for a media-only control. The plate was incubated overnight at 37° C. in the humidified conditions, followed by treatment with test compounds diluted in the culture medium (10 μL). Each column was treated with a different condition so that each treatment could have 8 repeats. […] The absorbance was measured using an automatic plate reader (Synergy H4 Hybrid Multi-Mode Microplate Reader, BioTek, Montreal, Canada) at 450 nm wavelength. The cell viability of each treatment sample was determined by using the following equation (%)=(Abstrtmt-Absmedia)/(AbsuT-Absmedia)*100, where Abstrtmt is the absorbance value of cells with the various treatment conditions; Absmedia is the absorbance of the well containing media only; AbsuT is the absorbance of the wells with untreated cells.
This finding was extended to human cells relevant to autoimmune diseases. […] Cytokine levels in cell culture supernatants were determined by a single-analyte ELISA. […] The cytokine secretion was measured in cell culture supernatants by a single-analyte ELISA.

As a reminder, the IC50 is the concentration that gives 50% inhibition. High values mean a need for much substance, low ones inhibition by little substance. `O=[N+]([O-])c1ccc(S(=O)(=O)N2CCN(c3ccnc4cc(Cl)ccc34)CC2)c([N+](=O)[O-])c1` [VR23, 7-chloro-4-(4-(2,4-dinitrophenylsulfonyl)piperazin-1-yl)quinoline]: the “IL-6 secretion, dose dependence” value is on record as “decreases in a dose dependent manner” in data set [1] (IL-1β 10 ng/mL, VR23 2.5-10 μM, HCQ 15 or 30 μM) and “decreases in a dose dependent manner” in data set [2] (HFLS-RA, IL-1β 10 ng/mL, VR23 2.5-10 μM, HCQ 15 or 30 μM). For the same molecule, the “secretion of IL-6” value is “rate of the decrease is much lower” in data set [1] (LPS 100 ng/mL) and “decreased substantially” in data set [2] (HFLS-RA, LPS 100 ng/mL, 5 or 10 μM). In addition, the “level of IL-6 secretion, HFLS-RA versus HFLS-N” value in data set [2] (IL-1β 10 ng/mL, VR23 5 μM) is recorded as “reduces the level of IL-6 secretion more effectively on HFLS-RA than HFLS-N”. In addition, the “IL-6 reduction, 5 μM VR23 versus 30 μM HCQ” value in data set [2] (synovial cells from rheumatoid arthritis patients, IL-1β or LPS) is given as “significantly more effective”. In data set [3] (LPS 0.4 mg/kg intranasally), the “total number of cells recruited into the bronchoalveolar space” value is reported as “completely prevented”. The “level of TNF-α in bronchoalveolar lavage fluid” value in data set [3] (LPS 0.4 mg/kg) is “effectively reduces the level of TNF-α”. The molecule also had an IC50 in data set [4] of 416 nM. In addition, the cell viability result in data set [5] is reported as “none of the conditions examined significantly affected the viability”.
